Assay results reported in PubChem BioAssay (NCI).
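Compound exposure: 48 hours, 5 concentrations, 96-well plates. Abbreviation: GI50, concentration required for 50% inhibition of growth. The concentration for full growth arrest is given as TGI.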

What was measured:
Test in all cases: growth of human tumour cells (NCI), 48 h; in the data active = GI50 below about 0.43 µM; inactive = the rest
SK-MEL-5 melanoma = test system: SK-MEL-5 melanoma
A498 renal = test system: A498 renal
HL-60(TB) leukemia = test system: HL-60(TB) leukemia
NCI/ADR-RES ovarian = test system: NCI/ADR-RES ovarian
IGROV1 ovarian = test system: IGROV1 ovarian
K-562 leukemia = test system: K-562 leukemia
UACC-62 melanoma = test system: UACC-62 melanoma
HOP-62 NSCLC = test system: HOP-62 NSCLC
MDA-MB-231 breast = test system: MDA-MB-231 breast
HCC-2998 colon = test system: HCC-2998 colon
BT-549 breast = test system: BT-549 breast
EKVX NSCLC = test system: EKVX NSCLC
OVCAR-8 ovarian = test system: OVCAR-8 ovarian
KM12 colon = test system: KM12 colon
786-0 renal = test system: 786-0 renal
SR leukemia = test system: SR leukemia
SF-539 CNS = test system: SF-539 CNS
A549 NSCLC = test system: A549 NSCLC
SK-OV-3 ovarian = test system: SK-OV-3 ovarian
PC-3 prostate = test system: PC-3 prostate
HT29 colon = test system: HT29 colon
OVCAR-5 ovarian = test system: OVCAR-5 ovarian
COLO 205 colon = test system: COLO 205 colon
RXF 393 renal = test system: RXF 393 renal
HCT-116 colon = test system: HCT-116 colon
MCF7 breast = test system: MCF7 breast
TK-10 renal = test system: TK-10 renal
U251 CNS = test system: U251 CNS
SK-MEL-2 melanoma = test system: SK-MEL-2 melanoma
SF-295 CNS = test system: SF-295 CNS
UACC-257 melanoma = test system: UACC-257 melanoma
HS 578T breast = test system: HS 578T breast
OVCAR-4 ovarian = test system: OVCAR-4 ovarian
M14 melanoma = test system: M14 melanoma
LOX IMVI melanoma = test system: LOX IMVI melanoma
NCI-H460 lung = test system: NCI-H460 lung
ACHN renal = test system: ACHN renal
MALME-3M melanoma = test system: MALME-3M melanoma
NCI-H226 lung = test system: NCI-H226 lung
SK-MEL-28 melanoma = test system: SK-MEL-28 melanoma
HOP-92 NSCLC = test system: HOP-92 NSCLC
HCT-15 colon = test system: HCT-15 colon
DU-145 prostate = test system: DU-145 prostate
UO-31 renal = test system: UO-31 renal
SN12C renal = test system: SN12C renal
SNB-19 CNS = test system: SNB-19 CNS
RPMI-8226 leukemia = test system: RPMI-8226 leukemia
CAKI-1 renal = test system: CAKI-1 renal
SF-268 CNS = test system: SF-268 CNS
SW-620 colon = test system: SW-620 colon
T-47D breast = test system: T-47D breast
NCI-H23 lung = test system: NCI-H23 lung
NCI-H522 lung = test system: NCI-H522 lung
MDA-MB-435 = test system: MDA-MB-435
OVCAR-3 ovarian = test system: OVCAR-3 ovarian
CCRF-CEM leukemia = test system: CCRF-CEM leukemia
MOLT-4 leukemia = test system: MOLT-4 leukemia
SNB-75 CNS = test system: SNB-75 CNS

C=C(c1ccc2nc(NC(=O)OC)[nH]c2c1)c1cccs1
> 35.5 µM: TGI (K-562 leukemia)
> 36.4 µM: TGI (OVCAR-8 ovarian)
> 100 µM: TGI (IGROV1 ovarian) | TGI (UACC-62 melanoma) | TGI (MDA-MB-231 breast) | TGI (BT-549 breast) | TGI (EKVX NSCLC) | TGI (KM12 colon) | TGI (786-0 renal) | TGI (A549 NSCLC) | TGI (PC-3 prostate) | TGI (HT29 colon) | TGI (OVCAR-5 ovarian) | TGI (COLO 205 colon) | TGI (RXF 393 renal) | TGI (MCF7 breast) | TGI (TK-10 renal) | TGI (SK-MEL-2 melanoma) | TGI (UACC-257 melanoma) | TGI (HS 578T breast) | TGI (OVCAR-4 ovarian) | TGI (M14 melanoma) | TGI (NCI-H460 lung) | TGI (MALME-3M melanoma) | TGI (SK-MEL-28 melanoma) | TGI (DU-145 prostate) | TGI (SN12C renal) | TGI (SNB-19 CNS) | TGI (SF-268 CNS) | TGI (SW-620 colon)
2.71 µM: TGI (A498 renal)
> 62.4 µM: TGI (UO-31 renal)
> 94.5 µM: TGI (NCI-H226 lung)
0.523 µM: TGI (SF-539 CNS)
8.27 µM: TGI (CAKI-1 renal)
0.86 µM: TGI (HCC-2998 colon)
7.31 µM: TGI (U251 CNS)
> 20.7 µM: TGI (SK-MEL-5 melanoma)
7.47 µM: TGI (ACHN renal)
> 31 µM: TGI (HOP-92 NSCLC)
2.24 µM: TGI (HCT-15 colon)
0.87 µM: TGI (NCI/ADR-RES ovarian)
> 52.6 µM: TGI (LOX IMVI melanoma)
3.59 µM: TGI (RPMI-8226 leukemia)
> 77.4 µM: TGI (HOP-62 NSCLC)
> 45.1 µM: TGI (SK-OV-3 ovarian)
0.934 µM: TGI (SF-295 CNS)
> 32.7 µM: TGI (HL-60(TB) leukemia)
> 45.2 µM: TGI (HCT-116 colon)
1.11 µM: TGI (SR leukemia)

O=C1c2ccccc2-c2c1c1c(=O)[nH]c3ccccc3c1n2Cc1ccccc1
34.7 µM: TGI (BT-549 breast)
65.5 µM: TGI (SNB-19 CNS)
50.6 µM: TGI (A498 renal)
67.4 µM: TGI (NCI-H226 lung)
45.8 µM: TGI (SK-OV-3 ovarian)
40.9 µM: TGI (SF-295 CNS)
70.4 µM: TGI (RXF 393 renal)
51.5 µM: TGI (HOP-92 NSCLC)
inactive: GI50 (SK-MEL-5 melanoma) > 100 µM | GI50 (A498 renal) 21.1 µM | GI50 (HL-60(TB) leukemia) > 100 µM | GI50 (NCI/ADR-RES ovarian) 52.6 µM | GI50 (IGROV1 ovarian) 29.9 µM | GI50 (K-562 leukemia) > 100 µM | GI50 (UACC-62 melanoma) 33.8 µM | GI50 (HOP-62 NSCLC) 25.6 µM | GI50 (MDA-MB-231 breast) 20.5 µM | GI50 (T-47D breast) 34.3 µM | GI50 (BT-549 breast) 19.5 µM | GI50 (NCI-H23 lung) 20.5 µM | GI50 (NCI-H522 lung) 42.7 µM | GI50 (EKVX NSCLC) 30.4 µM | GI50 (OVCAR-8 ovarian) 51 µM | GI50 (MDA-MB-435) > 100 µM | GI50 (KM12 colon) > 100 µM | GI50 (786-0 renal) 33 µM | GI50 (SR leukemia) > 100 µM | GI50 (SF-539 CNS) 17.8 µM | GI50 (A549 NSCLC) > 100 µM | GI50 (OVCAR-3 ovarian) 35 µM | GI50 (SK-OV-3 ovarian) 20.7 µM | GI50 (HT29 colon) > 100 µM | GI50 (OVCAR-5 ovarian) 49.5 µM | GI50 (CCRF-CEM leukemia) > 100 µM | GI50 (COLO 205 colon) > 100 µM | GI50 (RXF 393 renal) 29.7 µM | GI50 (MOLT-4 leukemia) > 100 µM | GI50 (HCT-116 colon) 39.9 µM | GI50 (MCF7 breast) 35.8 µM | GI50 (TK-10 renal) 15.1 µM | GI50 (U251 CNS) 16.6 µM | GI50 (SK-MEL-2 melanoma) > 100 µM | GI50 (SF-295 CNS) 17.2 µM | GI50 (UACC-257 melanoma) > 100 µM | GI50 (HS 578T breast) 16.5 µM | GI50 (OVCAR-4 ovarian) 45.4 µM | GI50 (M14 melanoma) > 100 µM | GI50 (LOX IMVI melanoma) 31.3 µM | GI50 (NCI-H460 lung) 61.7 µM | GI50 (ACHN renal) 13 µM | GI50 (MALME-3M melanoma) 37.1 µM | GI50 (NCI-H226 lung) 24.5 µM | GI50 (SK-MEL-28 melanoma) 84.7 µM | GI50 (HOP-92 NSCLC) 15.8 µM | GI50 (HCT-15 colon) 59.1 µM | GI50 (DU-145 prostate) 43.8 µM | GI50 (UO-31 renal) > 100 µM | GI50 (SNB-75 CNS) 15.6 µM | GI50 (SN12C renal) 35.9 µM | GI50 (SNB-19 CNS) 25.1 µM | GI50 (RPMI-8226 leukemia) > 100 µM | GI50 (CAKI-1 renal) 33.5 µM | GI50 (SF-268 CNS) 17.7 µM | GI50 (SW-620 colon) > 100 µM
46.8 µM: TGI (NCI-H23 lung)
48.7 µM: TGI (SF-268 CNS)
29.2 µM: TGI (TK-10 renal)
> 100 µM: TGI (SK-MEL-5 melanoma) | TGI (HL-60(TB) leukemia) | TGI (NCI/ADR-RES ovarian) | TGI (K-562 leukemia) | TGI (UACC-62 melanoma) | TGI (T-47D breast) | TGI (NCI-H522 lung) | TGI (OVCAR-8 ovarian) | TGI (MDA-MB-435) | TGI (KM12 colon) | TGI (SR leukemia) | TGI (A549 NSCLC) | TGI (OVCAR-3 ovarian) | TGI (HT29 colon) | TGI (OVCAR-5 ovarian) | TGI (CCRF-CEM leukemia) | TGI (COLO 205 colon) | TGI (MOLT-4 leukemia) | TGI (HCT-116 colon) | TGI (MCF7 breast) | TGI (SK-MEL-2 melanoma) | TGI (UACC-257 melanoma) | TGI (OVCAR-4 ovarian) | TGI (M14 melanoma) | TGI (LOX IMVI melanoma) | TGI (NCI-H460 lung) | TGI (MALME-3M melanoma) | TGI (SK-MEL-28 melanoma) | TGI (HCT-15 colon) | TGI (DU-145 prostate) | TGI (UO-31 renal) | TGI (SN12C renal) | TGI (RPMI-8226 leukemia) | TGI (CAKI-1 renal) | TGI (SW-620 colon)
97.3 µM: TGI (IGROV1 ovarian)
35.7 µM: TGI (HS 578T breast)
99.5 µM: TGI (EKVX NSCLC)
49.1 µM: TGI (HOP-62 NSCLC)
85 µM: TGI (786-0 renal)
30.1 µM: TGI (SNB-75 CNS)
40.5 µM: TGI (SF-539 CNS)
25.6 µM: TGI (ACHN renal)
48 µM: TGI (MDA-MB-231 breast)
34.1 µM: TGI (U251 CNS)
